Measured values as given in patent US9902712B2, “Nitrogenous heterocyclic derivatives and their application in drugs” (Sunshine Lake Pharma Co., Ltd., priority 2013, dated 2018).

Test system: HFL1 cells
Assay: HFL1 cell proliferation inhibition (CCK-8, optical density at 450 nm)
Type: cell-based
Details: for IC50: Homo sapiens, 48 hours after dosing, CCK-8, cell proliferation inhibition; for The ratio with PFD: IC50 ratio of Pirfenidone to the compound, 48 hours
Description: Example 69: Cell Experiment Method
HFL1 cells in exponential growth phase were cultured, cells were digested and collected using traditional subculturing when reaching 85-95% fusion and the cells were counted to adjust, the cell density to 5×10^4 cells per milliliter, then the cells were seed into 96-well plates, 100 μl/well and incubated in a 5% CO2 incubator at 37° C.
The supernatant of the 96-well plates was removed at 24 hours after the cells adhering to the wall and solutions containing the above compounds with different concentration were added to the wells, with 100 μl/well (the concentration of each compounds are in the range of 0.003-8 mmol/L) each concentration in 3 replicates, and the cells were cultured 48 hours after dosing.
3. Testing the Optical Density
10 μl of CCK-8 solution was added to each well 48 hours after dosing, and incubated for 2 hours. The optical density (A) of each well was determined using a microplate reader at 450 nm wavelength. The cell proliferation inhibition ratio of each compound were calculated based on A using the formula of: cell proliferation inhibition ratio(inhibition ratio, IR)=(1−value of experimental group (Ai)/value of control group (Ao))×100%, in which IC50 of each compound at 48 hours was calculated by data processing software, wherein the control group was the blank group.

In the case of `Cc1cc(=O)n(-c2ccc(N3CCC(Cc4cccc5cccnc45)CC3)c(Cl)c2)c(C)n1` [Example 22, 3-(3-chloro-4-(4-(quinolin-8-ylmethyl)piperidin-1-yl)phenyl)-2,6-dimethylpyrimidin-4(3H)-one], the IC50 is reported as 90 µM and the “The ratio with PFD” value is reported as 101 multiple.
For `Cc1cc(=O)n(-c2ccc(N3CCC(Cc4cc(F)c(F)c(F)c4)CC3)c(Cl)c2)c(C)n1` [Example 17, 3-(3-chloro-4-(4-(3,4,5-trifluorobenzyl)piperidin-1-yl)phenyl)-2,6-dimethylpyrimidin-4(3H)-one], the IC50 was 70 µM and the “The ratio with PFD” value was 137 multiple.
`Cc1cc(=O)n(-c2ccc(N3CCC(Cc4ccc5ccccc5c4)CC3)c(Cl)c2)c(C)n1` [Example 10, 3-(3-chloro-4-(4-(naphthalen-2-ylmethyl)piperidin-1-yl)phenyl)-2,6-dimethylpyrimidin-4(3H)-one] was tested, and the IC50 was 78 µM and the “The ratio with PFD” value was 111 multiple.
`Cc1cc(=O)n(-c2ccc(N3CCC(Cc4ccccc4-c4ccccc4)CC3)c(Cl)c2)c(C)n1` [Example 13, 3-(4-(4-([1,1′-biphenyl]-2-ylmethyl)piperidin-1-yl)-3-chlorophenyl)-2,6-dimethylpyrimidin-4(3H)-one] was tested, and the IC50 was 70 µM and the “The ratio with PFD” value was 118 multiple.
For `Cc1cc(=O)n(-c2ccc(N3CCC(Cc4cccc(C(F)(F)F)c4)CC3)c(Cl)c2)c(C)n1` [Example 14, 3-(3-chloro-4-(4-(3-(trifluoromethyl)benzyl)piperidin-1-yl)phenyl)-2,6-dimethylpyrimidin-4(3H)-one], the IC50 was 60 µM and the “The ratio with PFD” value was 139 multiple.
For `COc1cccc(CC2CCN(c3ccc(-n4c(C)nc(C)cc4=O)cc3Cl)CC2)c1` [Example 12, 3-(3-chloro-4-(4-(3-methoxybenzyl)piperidin-1-yl)phenyl)-2,6-dimethylpyrimidin-4(3H)-one], the IC50 was 80 µM and the “The ratio with PFD” value was 112 multiple.
In the case of `Cc1cc(=O)n(-c2ccc(N3CCC(Cc4cccc5ccccc45)CC3)c(Cl)c2)c(C)n1` [Example 9, 3-(3-chloro-4-(4-(naphthalen-1-ylmethyl)piperidin-1-yl)phenyl)-2,6-dimethylpyrimidin-4(3H)-one], the IC50 is reported as 80 µM and the “The ratio with PFD” value is reported as 179 multiple.
With `Cc1cc(=O)n(-c2ccc(N3CCC(Cc4ccc(F)c(F)c4)CC3)c(Cl)c2)c(C)n1` [Example 44, 3-(3-chloro-4-(4-(3,4-difluorobenzyl)piperidin-1-yl)phenyl)-2,6-dimethylpyrimidin-4(3H)-one] the IC50 was 70 µM and the “The ratio with PFD” value was 139 multiple.
In the case of `Cc1cc(=O)n(-c2ccc(N3CCC(Cc4ccc(F)c5ccccc45)CC3)c(Cl)c2)c(C)n1` [Example 58, 3-(3-chloro-4-(4-((4-fluoronaphthalen-1-yl)methyl)piperidin-1-yl)phenyl)-2,6-dimethylpyrimidin-4(3H)-one], the IC50 is reported as 64 µM and the “The ratio with PFD” value is reported as 357 multiple.
With `Cc1cc(=O)n(-c2ccc(N3CCC(Oc4cccc(C#N)c4)CC3)c(Cl)c2)c(C)n1` [Example 29, 3-((1-(2-chloro-4-(2,4-dimethyl-6-oxopyrimidin-1 (6H)-yl)phenyl)piperidin-4-yl)oxy)benzonitrile] the IC50 was 90 µM and the “The ratio with PFD” value was 107 multiple.
`C=CCc1ccccc1OC1CCN(c2ccc(-n3c(C)nc(C)cc3=O)cc2Cl)CC1` [Example 33, 3-(4-(4-(2-allylphenoxy)piperidin-1-yl)-3-chlorophenyl)-2,6-dimethylpyrimidin-4(3H)-one] was tested, and the IC50 was 70 µM and the “The ratio with PFD” value was 149 multiple.
In the case of `Cc1cc(=O)n(-c2ccc(N3CCC(Cc4ccc(C(F)(F)F)c5cccnc45)CC3)c(Cl)c2)c(C)n1` [Example 56, 3-(3-chloro-4-(4-((5-(trifluoromethyl)quinolin-8-yl)methyl)piperidin-1-yl)phenyl)-2,6-dimethylpyrimidin-4(3H)-one], the IC50 is reported as 40 µM and the “The ratio with PFD” value is reported as 209 multiple.
In the case of `Cc1cc(=O)n(-c2ccc(N3CCC(Cc4cccc(Cl)c4)CC3)c(Cl)c2)c(C)n1` [Example 19, 3-(3-chloro-4-(4-(3-chlorobenzyl)piperidin-1-yl)phenyl)-2,6-dimethylpyrimidin-4(3H)-one], the IC50 is reported as 70 µM and the “The ratio with PFD” value is reported as 137 multiple.
For `Cc1cc(=O)n(-c2ccc(N3CCC(COc4cccc(F)c4)CC3)c(Cl)c2)c(C)n1` [Example 30, 3-(3-chloro-4-(4-((3-fluorophenoxy)methyl)piperidin-1-yl)phenyl)-2,6-dimethylpyrimidin-4(3H)-one], the IC50 was 60 µM and the “The ratio with PFD” value was 136 multiple.
In the case of `Cc1cc(=O)n(-c2ccc(N3CCC(Cc4ccc(F)cc4)CC3)c(F)c2)c(C)n1` [Example 25, 3-(3-fluoro-4-(4-(4-fluorobenzyl)piperidin-1-yl)phenyl)-2,6-dimethylpyrimidin-4(3H)-one], the IC50 is reported as 100 µM and the “The ratio with PFD” value is reported as 107 multiple.
With `Cc1cc(=O)n(-c2ccc(N3CCC(Cc4ccc5cc(F)ccc5c4)CC3)c(Cl)c2)c(C)n1` [Example 51, 3-(3-chloro-4-(4-((6-fluoronaphthalen-2-yl)methyl)piperidin-1-yl)phenyl)-2,6-dimethylpyrimidin-4(3H)-one] the IC50 was 37 µM and the “The ratio with PFD” value was 618 multiple.
`Cc1cc(=O)n(-c2ccc(N3CCC(Cc4ccccc4F)CC3)c(Cl)c2)c(C)n1` [Example 6, 3-(3-chloro-4-(4-(2-fluorobenzyl)piperidin-1-yl)phenyl)-2,6-dimethylpyrimidin-4(3H)-one] was tested, and the IC50 was 70 µM and the “The ratio with PFD” value was 121 multiple.
In the case of `Cc1cc(=O)n(-c2ccc(N3CCC(Cc4cc(F)cc5cccnc45)CC3)c(Cl)c2)c(C)n1` [Example 54, 3-(3-chloro-4-(4-((6-fluoroquinolin-8-yl)methyl)piperidin-1-yl)phenyl)-2,6-dimethylpyrimidin-4(3H)-one], the IC50 is reported as 40 µM and the “The ratio with PFD” value is reported as 209 multiple.
`Cc1cc(=O)n(-c2ccc(N3CCC(Cc4ccc(Cl)c(F)c4)CC3)c(Cl)c2)c(C)n1` [Example 16, 3-(3-chloro-4-(4-(4-chloro-3-fluorobenzyl)piperidin-1-yl)phenyl)-2,6-dimethylpyrimidin-4(3H)-one] was tested, and the IC50 was 70 µM and the “The ratio with PFD” value was 139 multiple.
In the case of `Cc1cc(=O)n(-c2ccc(N3CCC(Cc4cc(F)c(F)c5cccnc45)CC3)c(Cl)c2)c(C)n1` [Example 57, 3-(3-chloro-4-(4-((5,6-difluoroquinolin-8-yl)methyl)piperidin-1-yl)phenyl)-2,6-dimethylpyrimidin-4(3H)-one], the IC50 is reported as 60 µM and the “The ratio with PFD” value is reported as 168 multiple.
For `Cc1cc(=O)n(-c2ccc(N3CCC(Oc4cccc(N)c4)CC3)c(Cl)c2)c(C)n1` [Example 34, 3-(4-(4-(3-aminophenoxy)piperidin-1-yl)-3-chlorophenyl)-2,6-dimethylpyrimidin-4(3H)-one], the IC50 was 90 µM and the “The ratio with PFD” value was 154 multiple.
`Cc1cc(=O)n(-c2ccc(N3CCC(Oc4ccccc4OC(F)(F)F)CC3)c(Cl)c2)c(C)n1` [Example 35, 3-(3-chloro-4-(4-(2-(trifluoromethoxy)phenoxy)piperidin-1-yl)phenyl)-2,6-dimethylpyrimidin-4(3H)-one] was tested, and the IC50 was 120 µM and the “The ratio with PFD” value was 119 multiple.
In the case of `Cc1cc(=O)n(-c2ccc(N3CCC(Cc4cccc5ccccc45)CC3)c(F)c2)c(C)n1` [Example 26, 3-(3-fluoro-4-(4-(naphthalen-1-ylmethyl)piperidin-1-yl)phenyl)-2,6-dimethylpyrimidin-4(3H)-one], the IC50 is reported as 60 µM and the “The ratio with PFD” value is reported as 137 multiple.
`Cc1cc(=O)n(-c2ccc(N3CCC(COc4cccc(C(F)(F)F)c4)CC3)c(Cl)c2)c(C)n1` [Example 53, 3-(3-chloro-4-(4-((3-(trifluoromethyl)phenoxy)methyl)piperidin-1-yl)phenyl)-2,6-dimethylpyrimidin-4(3H)-one] was tested, and the IC50 was 38 µM and the “The ratio with PFD” value was 602 multiple.
For `Cc1cc(=O)n(-c2ccc(N3CCC(Cc4ccccc4Cl)CC3)c(Cl)c2)c(C)n1` [Example 15, 3-(3-chloro-4-(4-(2-chlorobenzyl)piperidin-1-yl)phenyl)-2,6-dimethylpyrimidin-4(3H)-one], the IC50 was 65 µM and the “The ratio with PFD” value was 151 multiple.
`Cc1ccc(OC2CCN(c3ccc(-n4c(C)nc(C)cc4=O)cc3Cl)CC2)c(Cl)c1` [Example 37, 3-(3-chloro-4-(4-(2-chloro-4-methylphenoxy)piperidin-1-yl)phenyl)-2,6-dimethylpyrimidin-4(3H)-one] was tested, and the IC50 was 80 µM and the “The ratio with PFD” value was 181 multiple.
In the case of `Cc1cc(=O)n(-c2ccc(N3CCC(OCc4cccc(F)c4)CC3)c(Cl)c2)c(C)n1` [Example 32, 3-(3-chloro-4-(4-((3-fluorobenzyl)oxy)piperidin-1-yl)phenyl)-2,6-dimethylpyrimidin-4(3H)-one], the IC50 is reported as 100 µM and the “The ratio with PFD” value is reported as 107 multiple.
